According to PMC9569450, “Dual Effect of Tryptamine on Prostate Cancer Cell Growth Regulation: A Pilot Study” (International Journal of Molecular Sciences, 2022):

Tests used:
PANC-1 cells = assay: Transwell migration assay, PANC-1; type: cell-based; conditions: 24 h
Method: Cell migration was evaluated using 8-μm transwell filters (Costar Corning, Schiphol-Rijk, The Netherlands). Cells at a density of 5 × 10^4 were seeded to the upper chamber, and the chamber was filled with FBS-free medium. Cells were incubated overnight to allow for adherence; then, the lower chamber was replaced with 10% FBS medium as a chemo-attractant. Following a 24 h incubation, non-migrating cells on the upper surface of the insert membrane were gently removed by cotton swabs and migrated cells on the lower surface of the insert membrane were fixed by 4% paraformaldehyde and stained with 0.1% crystal violet for 20 min. Migrated cells on each membrane were photographed and counted at 100× magnification field at six random fields.

[1] = system: cleaved caspase-3 in PC-3 cells; assay: Cleaved caspase-3 expression by immunofluorescent staining and Western blot; type: cell-based, human; conditions: PC-3, 0.3 mM
Method: After treatment with various doses of tryptamine, PC-3 cells were lysed with RIPA lysis buffer (Beyotime, Shanghai, China) containing 1 mM PMSF, and the total protein concentration was determined by BCA Protein Assay Kit (Solarbio, Beijing, China). Samples were electrophoresed on a 10% sodium dodecylsulfate (SDS) polyacrylamide gel and electrotransferred onto polyvinylidene difluoride (PVDF) membrane (Beyotime, China). After blocking with 5% BSA for 1 h, the membrane was incubated with the primary antibodies rabbit anti-cleaved caspase-3 (1:1000, ab32042, Abcam) and anti-β-actin (1:1000, 4967S, Cell Signaling Technology, Boston, MA, USA) at 4 °C overnight, followed by incubation with horseradish peroxidase (HRP)-conjugated goat anti-rabbit secondary antibody (1:2000, 7074S, Cell Signaling Technology) for 1 h at 37 °C. After washing with TBST, the bands were visualized by the enhanced chemiluminescence kit (Thermo Fisher Scientific, Carlsbad, CA, USA) and Odyssey® imaging system (LI-COR, Lincoln, NE, USA) according to the manufacturers’ instructions.
PC-3 cells (5 × 10^4 cells/well) were seeded in a 24-well chamber with a coverslip and incubated overnight. […] Fluorescence images were acquired with a laser scanning confocal microscope (LSCM, Leica, TCS SP8 MP, Heidelberg, Germany).

PC-3 cells = assay: UPLC-HRMS cell metabolomics of tryptamine-treated PC-3 cells; type: cell-based, human
Method: The cells were seeded in 10 cm Petri dishes at a density of 1 × 10^6 cells/dish. After incubation overnight for adherence, cells were subjected to treatment with tryptamine (0.3 mM) in FBS-free medium, and control samples were treated with FBS-free medium. […] For cellular metabolite extraction, cells were first washed with PBS for three times, then 8 mL extraction solvent (methanol: acetonitrile: 0.5 M formic acid, 2:2:1 v/v/v) was added for quenching and cell lysis. The mixture was vortexed and sonicated on ice for 15 min to extract metabolites, and then centrifuged at 13,000 rpm for 10 min at 4 °C. The supernatant was collected and dried under vacuum. Before analysis, the sample was reconstituted in 100 μL H2O.
The chromatographic method involved elution with water with 0.1% acetic acid (A) and acetonitrile (B). The gradient program of cell metabolomics was as follows: 0–1 min 98–99% A, 1–3 min 2–30% A, 3–8 min 30–50% A, 8–10 min 50–95% A, 10–15 min 95–95% A. The flow rate was constant at 0.3 mL/min. […] The column was maintained at 35 °C. After each run, the gradient was re-equilibrated to its initial conditions over 6 min. Sample injection volume was 10 μL. The main mass spectrometer parameters were set as follows: capillary temperature 300 °C; capillary voltage and tube lens 20 V and 35 V, respectively, for positive mode, and 40 V and 80 V, respectively, for negative mode; spray voltage 4.0 kV in positive mode, and 2.5 kV and 2.8 kV in negative mode for serum and cell metabolite profiling, respectively; auxiliary gas, sheath gas and sweep gas flow rate 10, 40, and 0 arbitrary units, respectively. Data were acquired in the m/z range of 50–1000. The resolving power was 60,000 at m/z 195. Ultra-high-purity argon (≥99.999%) was used as the collision gas in UPLC–MS/MS experiments, and normalized collision voltages were in the range of 15–55 V.
Raw data was pre-processed using Progenesis QI software version 2.4 (Nonlinear Dynamics, Waters Corporation, Milford, CT, USA), which included peak picking and alignment. A data matrix table containing metabolic peak identity (retention time (Rt and m/z pair)) and peak abundances in samples was obtained. We used our previously designed FORTRAN program for data post-processing, including analyses of adducts, in-source fragments and chloride isotopic ions, contaminant and artefact ion removal, QC-based scaling, and normalization. Principal components analysis (PCA) and oPLS-DA (orthogonal partial least squares-discriminant analysis) were applied for sample classification using the PLS Toolbox software (version 8.9.1, Eigenvector Research, Inc., Manson, WA, USA) based on Matlab R2021a (version 9.10.0, MathWorks, Natick, MA, USA). Differential metabolites were identified with p-value < 0.05 and variance importance in projection (VIP) value greater than 1. The metabolites were identified based on accurate mass matching to theoretical values within a 2 mDa tolerance and MS/MS matching with spectral data in Human Metabolome Database (HMDB) and/or manual analysis of MS/MS spectra (Figure S4). MetaboAnalyst 5.0 was used for metabolic pathway and network analyses.

[2] = 0.3 mM, treatment/control ratio, negative = decreased

For `NCCc1c[nH]c2ccccc12` [Tryptamine], the “migrated cells reduced by” value (PANC-1 cells; PANC-1, 0.075 mM) was 43%, the “percentage of migrated cells” value (PANC-1 cells; PANC-1, 0.15 mM) was 45% and the “percentage of migrated cells” value (PANC-1 cells; PANC-1, 0.3 mM) was 27%. The “expression of cleaved caspase-3” value [1] was “increased expression of cleaved caspase-3”, the “Fold Change of ketoleucine” value (PC-3 cells; 0.3 mM, treatment/control ratio) was 0 and the “Fold Change of arginine” value (PC-3 cells; [2]) was −1.9. The “Fold Change of aspartic acid” value (PC-3 cells; [2]) was −3.2, the “Fold Change of creatine” value (PC-3 cells; [2]) was −2.0 and the “Fold Change of pantothenic acid” value (PC-3 cells; [2]) was −1.6. The “Fold Change of proline” value (PC-3 cells; [2]) was −2.0, the “Fold Change of spermidine” value (PC-3 cells; [2]) was −2.1 and the “Fold Change of spermine” value (PC-3 cells; [2]) was −2.1. The “Fold Change of 5-HT” value (PC-3 cells; 0.3 mM, treatment/control ratio, positive = increased) was 1.4 × 10^3 and the “aspartic acid, fold decrease compared to the control group” value (PC-3 cells; tryptamine treated group) was 3.2 fold.
